This is an account of results in US5280027A, “Anti-tumor compounds” (Imperial Chemical Industries PLC, priority 1990, dated 1994).

One series deals with MCF-7 cell line. Nature of the series: Test (c): inhibition of growth of the human breast cancer cell line MCF-7 in cell culture. Type of series: cell-based. The following applies: MCF7, MCF-7 growth. An excerpt:
(c) An assay which determines the ability of a test compound to inhibit the growth of the human breast cancer cell line MCF-7 in cell culture. The test is similar to that described by Lippman et al. (Cancer Res., 1976, 36, 4595); and […]

The target in the next series is T1, thymidylate synthase (Mus musculus, UniProt P07607).
T1 construct: obtained in partially purified form from L1210 mouse leukaemia cells; endogenous in cells; host or cells: L1210 mouse leukaemia cells (enzyme partially purified)
Description: Test (a): in vitro inhibition of the enzyme thymidylate synthase (partially purified from L1210 mouse leukaemia cells). Type of series: biochemical. From the text:
(a) An in vitro assay which determines the ability of a test compound to inhibit the enzyme thymidylate synthase. Thymidylate synthase was obtained in partially purified form from L1210 mouse leukaemia cells and utilised using the procedures described by Jackman et al. (Cancer Res., 1986, 46, 2810 and Sikora et al., Biochem. Pharmacol. 1988, 37, 4047);

Another series has as its system L1210 cell line. Description: Test (b): inhibition of growth of the leukaemia cell line L1210 in cell culture. Type of series: cell-based. The following applies: Mus musculus. An excerpt: (b) An assay which determines the ability of a test compound to inhibit the growth of the leukaemia cell line L1210 in cell culture. The test is similar to that described in UK Patent Specification No. 2065653B and has been described by Jones et al., J. Med. Chem., 1985, 28, 1468;

The conditions of series [1]: cited from earlier work.
The subject of series [2] is human breast, ovarian and liver cancer. The following applies: clinical; cited from earlier work.
Where [3] appears, read: Test (a), thymidylate synthase, read-out: IC50.

pIC50: −log10 of the molar value. Read-outs that look alike come from different tables or passages of the source.

T1 sequence (P07607 whole entry): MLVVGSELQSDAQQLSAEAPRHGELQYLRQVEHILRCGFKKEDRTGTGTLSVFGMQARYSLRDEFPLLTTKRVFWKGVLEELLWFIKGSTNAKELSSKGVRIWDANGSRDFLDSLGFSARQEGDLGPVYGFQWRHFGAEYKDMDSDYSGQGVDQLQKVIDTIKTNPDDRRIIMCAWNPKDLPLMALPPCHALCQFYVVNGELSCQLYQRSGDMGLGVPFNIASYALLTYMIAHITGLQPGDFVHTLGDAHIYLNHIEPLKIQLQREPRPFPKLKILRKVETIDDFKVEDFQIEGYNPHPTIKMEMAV

`C#CCN(Cc1ccc2nc(C)[nH]c(=O)c2c1)c1ccc(C(=O)NC(C(=O)NS(=O)(=O)c2ccc(OC)cc2)c2cccc([N+](=O)[O-])c2)cc1` (centres unmarked) [Example 10, N-[p-[N-(2-methyl-4-oxo-3,4-dihydroquinazolin-6-ylmethyl)-N-(prop-2-ynyl)amino]benzoyl]-(3-nitrophenyl)glycine N-(4-methoxyphenylsulphonyl)amide]: the negative-log IC50 (pIC50) with MCF-7 cell line was around 6.00; on thymidylate synthase, around 8.00; in the series on L1210 cell line, around 4.60.
On to `C#CCN(Cc1ccc2nc(N)[nH]c(=O)c2c1)c1ccc(C(=O)N[C@@H](CCC(=O)O)C(=O)O)cc1` [CB3717], for which the “toxicity in humans, particularly in relation to the liver and kidney” value in series [1] is “symptoms of toxicity in humans, particularly in relation to the liver and kidney”. Further, the “activity against human breast, ovarian and liver cancer” value in series [2] is recorded as “promising activity”.
Regarding `C#CCN(Cc1cc2c(=O)[nH]c(C)nc2cc1C)c1ccc(C(=O)NC(CO)c2cccc([N+](=O)[O-])c2)cc1` (centres unmarked) [Example 14, compound no. 2, p-[N-(2,7-dimethyl-4-oxo-3,4-dihydroquinazolin-6-ylmethyl)-N-(prop-2-ynyl)amino]-N-[2-hydroxy-1-(3-nitrophenyl)ethyl]benzamide], the pIC50 in the series with MCF-7 cell line was around 7.00; at thymidylate synthase (setting [3]) it was around 7.70; in the series on L1210 cell line, around 5.47.
`C#CCN(Cc1ccc2nc(C)[nH]c(=O)c2c1)c1ccc(C(=O)NC(c2ccccc2)c2ccccc2)cc1` [Example 7, N-diphenylmethyl-p-[N-(2-methyl-4-oxo-3,4-dihydroquinazolin-6-ylmethyl)-N-(prop-2-ynyl)amino]benzamide]: the pIC50 was around 5.82 in the series on MCF-7 cell line, around 5.70 at thymidylate synthase (setting [3]) and around 5.15 in the series with L1210 cell line.

By pIC50 is commonly meant the negative decadic logarithm of the IC50, by convention in mol/L.
